The data set in a line: gradient 5% acetonitrile 3 min, to 50% in 2 min, to 85% in 15 min, held 3 min, 100 µL/min. Conditions: column: Zorbax Extend-C18 2.1 x 50 mm; eluents: water / acetonitrile, 0.1% formic acid. The method in brief:
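The system's dead and dwell volumes were 40 μL and 900 μL, with a Zorbax Extend-C18 column (2.1 × 50 mm, 1.8 μm) run at 100 μL/min in water and acetonitrile containing 0.1% formic acid each. Pure standards were analyzed in mixtures of ~100 molecules by HPLC–quadrupole time-of-flight mass spectrometry in positive and negative ionization mode. Retention time was assigned from computationally picked, manually inspected adduct peaks.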
Consider `Cc1c(NC(=O)c2sc3cc(F)ccc3c2Cl)c(=O)n(-c2ccccc2)n1C`, for which the RP-LC retention time came to 756 s.

As to `CCc1nc(-c2csc(S(=O)(=O)N3CCCC(C(=O)NCc4ccccn4)C3)c2)no1` (centres undefined), the RP-LC retention time stood at 681 s.

The compound `O=C(Cc1csc(Nc2ncccn2)n1)Nc1ccc2c(c1)Cc1ccccc1-2` displayed an RP-LC retention time of 845 s.

`O=S(=O)(NCc1ccc(F)cc1)c1ccccc1-c1nc(-c2ccccc2)no1` displayed an RP-LC retention time of 1160 s.

Take `CCOc1nc2ccccc2nc1N1CCCC(C(=O)Nc2ccc(C(C)C)cc2)C1` (centres undefined): the RP-LC retention time was found to be 1240 s.

Take `Cc1[nH]c(C(=O)N2CCC(CC(=O)NCCN3CCCCCC3)CC2)c(C)c1C`: the RP-LC retention time was found to be 626 s.

In turn, `CC(=O)c1cccc(C(=O)N2CCC3(CC2)NC(=O)N(Cc2ccccc2)C3=O)c1` displayed an RP-LC retention time of 733 s.

The compound `CC(C)CNC(=O)C1Cn2cccc2C(=O)N1C` (centres undefined) registered an RP-LC retention time of 624 s.

`Cc1ccccc1NC(=O)c1cn(CC2CCCO2)cc2c(=O)n(-c3ccccc3)nc1-2` (centres undefined) had an RP-LC retention time of 943 s.

As for `O=C(NC1CCCC1)c1cn(-c2ncccc2-c2nc(-c3ccccc3)no2)cn1`, the RP-LC retention time stood at 867 s.

For `CC(C)N1CCN(S(=O)(=O)c2cc(-c3nnc(C4CCCC4)o3)co2)CC1`, the RP-LC retention time was found to be 641 s.

Turning to `O=C(Cc1ccc(Cl)cc1)Nc1cc(-c2ccccn2)no1`, the RP-LC retention time came to 850 s.

`CN(CCNC(=O)C1CCCN(c2nnc(-n3cccc3)s2)C1)C1CCCCC1` (centres undefined) yielded an RP-LC retention time of 650 s.

As for `CCOc1ccc(N2C(=O)C3N=NN(Cc4nc(-c5ccc(C)cc5)no4)C3C2=O)cc1` (centres undefined), the RP-LC retention time came out at 1040 s.

For the compound `CCc1nnc(-c2ccc(NC(=O)COc3ccccc3F)cc2)o1`, the RP-LC retention time is 772 s.

In turn, `CCCN1C(=O)c2cc(C(=O)N3CCCCCC3)nn2CC1(C)C(=O)NC1CCCC1` (centres undefined) registered an RP-LC retention time of 803 s.

`Cc1ccc(NC(=O)CC(=O)Nc2ccc3nc4n(c(=O)c3c2)CCCCC4)cc1F` registered an RP-LC retention time of 750 s.

Turning to `O=C(CCc1nnc(C(=O)Nc2ccccc2)s1)NCCc1c[nH]c2ccc(Cl)cc12`, the RP-LC retention time amounted to 921 s.

Compound `O=C(NCC1CC1)c1cccc(OC2CN(Cc3cc4ccccc4nc3Cl)C2)c1` registered an RP-LC retention time of 667 s.

Compound `Cc1ccc(NC(=O)N2CCC3(C2)C(=O)Nc2ccccc23)cc1` (centres undefined) gave an RP-LC retention time of 745 s.

In the case of `CCOc1ccccc1NC(=O)Nc1ccc2c(c1)CC(=O)N2`, the RP-LC retention time amounted to 675 s.

Compound `Cc1ccsc1-c1nnc(CC(=O)N2CCN(c3ccccc3)CC2)o1` returned an RP-LC retention time of 872 s.

On to `COc1ccc(NC(=O)c2noc3c2CCCCC3)cc1`, for which the RP-LC retention time was 989 s.

Compound `Cc1cccc(CN2C[C@@H]3C(=O)N(C)C(=O)[C@@H]3C2)c1` yielded an RP-LC retention time of 583 s.

For `c1ccc(C2CNCc3ccccc32)cc1` (centres undefined), the RP-LC retention time stood at 698 s.

Compound `CCc1cccc(NC(=O)C2(C)CCCCC(=O)N2)c1` (centres undefined) gave an RP-LC retention time of 753 s.

Turning to `CCn1cc(CCNC(=O)Nc2ccc(Br)cc2F)c2cccnc21`, the RP-LC retention time amounted to 838 s.

The compound `COc1ccc(C2(C(=O)Nc3ccc4c(c3)Sc3ncccc3C(=O)N4C)CC2)cc1` yielded an RP-LC retention time of 902 s.

`O=S(=O)(Nc1ccc(Cn2cncn2)cc1)c1ccccc1Br` yielded an RP-LC retention time of 708 s.

The compound `O=C1CC(c2cc(F)cc(F)c2)Cc2nc(N3CCN(c4ccc(F)cc4)CC3)ncc21` (centres undefined) yielded an RP-LC retention time of 719 s.

Regarding `CCCC(C)NC(=O)c1ccc2c(c1)CCCN2S(=O)(=O)CC` (centres undefined), the RP-LC retention time worked out at 872 s.

Compound `COc1ccc(OC)c(NC(=O)NC2CCN(c3ccc(F)cc3)C2=O)c1` (centres undefined) returned an RP-LC retention time of 716 s.

In the case of `Cc1ccc(C)c(N2CCN(Cc3nc(-c4ccc(N5CCCCC5)nc4)no3)CC2)c1`, the RP-LC retention time was determined as 1160 s.

As to `O=C(CCSc1ccccc1)N1CCN(c2ccc3nnc(-c4ccco4)n3n2)CC1`, the RP-LC retention time worked out at 703 s.

In turn, `COCCNc1c(-c2ccc(F)cc2)nc2sc(C(=O)N3CCCC3)c(C)n12` returned an RP-LC retention time of 757 s.

Consider `Cc1ccc(N2C(=O)C3N=NN(Cc4nc(-c5cccc(C(F)(F)F)c5)no4)C3C2=O)cc1` (centres undefined), for which the RP-LC retention time came out at 1080 s.

Compound `CC1CCCCN1S(=O)(=O)c1ccc2nc(N3CCN(c4ccccc4)CC3)ccc2c1` (centres undefined) registered an RP-LC retention time of 1100 s.

`COc1ccc(NC(=O)N2CC=C(c3cn(C(C)C)c4ncccc34)CC2)cc1OC` had an RP-LC retention time of 826 s.

Regarding `CCCn1cc(CCNS(=O)(=O)c2ccc(OC)c(Cl)c2)c2cccnc21`, the RP-LC retention time worked out at 865 s.

Consider `Cc1ccc(C(CC(=O)NCCCN2CCCC2=O)N2Cc3ccccc3C2=O)cc1` (centres undefined), for which the RP-LC retention time is 685 s.

Take `CCc1cc(C(=O)NCCN2CCOCC2)nc2cc(-c3cccs3)nn12`: the RP-LC retention time stood at 670 s.

`COc1cccc(N2CCN(C(=O)CCc3nnc4c5cc(-c6ccccc6)nn5ccn34)CC2)c1` displayed an RP-LC retention time of 791 s.

`COc1ccc(C(=O)Nc2c(-c3ccccc3)nc3ccccn23)cc1OC` had an RP-LC retention time of 608 s.

For the compound `CCC(=O)Nc1nc(-c2ccc3c(c2)N(C)C(=O)CO3)cs1`, the RP-LC retention time was found to be 752 s.

As for `CC(C)CC(NC(=O)C1CCC(C)CC1)C(=O)N1CCN(c2ccccn2)CC1` (centres undefined), the RP-LC retention time is 693 s.

In turn, `CCOC(=O)C1CCC(CNC(=O)Nc2cccn3cnnc23)CC1` (centres undefined) showed an RP-LC retention time of 654 s.

Take `Cc1ccc(NC(=O)Cn2c(NCCN3CCOCC3)nc3ccccc32)cc1`: the RP-LC retention time was 556 s.

Turning to `O=C(c1cn(Cc2ccccc2)cc2c(=O)n(-c3ccccc3)nc1-2)N1CCc2ccccc21`, the RP-LC retention time is 916 s.

In turn, `COc1cc(C(=O)Nc2ccc(C)cc2-c2nc3ccccc3[nH]c2=O)cc(OC)c1OC` had an RP-LC retention time of 772 s.

In the case of `O=C(CCc1cn(Cc2ccccc2F)c2ccccc12)N1CCN(c2ccccn2)CC1`, the RP-LC retention time came to 737 s.

Regarding `COc1ccc(-c2ncc3c(n2)CCN(S(=O)(=O)c2cc(C)ccc2C)C3)cc1`, the RP-LC retention time was found to be 1150 s.

As to `CC(C)N1CCn2cc(S(=O)(=O)Nc3ccc(F)c(F)c3)cc2C1=O`, the RP-LC retention time is 794 s.

As to `COc1ccc(S(=O)(=O)N2CCC(n3cnnc3-c3ccccc3)CC2)cc1OC`, the RP-LC retention time was determined as 718 s.

In turn, `CCOc1ccc(-c2noc(Cn3nc(-c4ccccc4F)ccc3=O)n2)cc1OC` came in with an RP-LC retention time of 964 s.

Take `COC1CCC12CCN(C(=O)C1CCCC1)CC2` (centres undefined): the RP-LC retention time turned out to be 841 s.

Regarding `CCCNc1cc(N2CCC(CCC(=O)NCc3cccc(C)c3)CC2)ncn1`, the RP-LC retention time worked out at 716 s.

The compound `Cn1cc(CC(=O)NCC2CC2)c2cccnc21` yielded an RP-LC retention time of 593 s.

`O=C(NCC1CCCO1)c1cn(-c2cc(N3CCSCC3)ncn2)cn1` (centres undefined) registered an RP-LC retention time of 717 s.

As to `CCS(=O)(=O)N1CCCc2cc(C(=O)NC(C)c3ccccc3)ccc21` (centres undefined), the RP-LC retention time was 870 s.

For `O=C(Cc1ccsc1)NCCn1c(=O)n(Cc2ccccc2)c2cccnc21`, the RP-LC retention time was determined as 772 s.

For `COC(=O)c1c(C)[nH]c(C(=O)N2CCCC(C(=O)NCCCN3CCCCC3)C2)c1C` (centres undefined), the RP-LC retention time is 596 s.

The compound `Cc1ccc(-n2c(N3CCCC(C(=O)NCc4ccccc4C)C3)nc3ccsc3c2=O)cc1` (centres undefined) gave an RP-LC retention time of 954 s.

Take `O=C(COc1ccccc1[N+](=O)[O-])Nc1nc(-c2ccccc2)cs1`: the RP-LC retention time worked out at 1040 s.

In turn, `CCn1ccc(C(=O)NCC(=O)N2CCCc3ccccc32)n1` returned an RP-LC retention time of 703 s.

Compound `CC(C)(Cc1ccc2ccccc2c1)NC[C@@H](O)COc1cccc(Cl)c1C#N` returned an RP-LC retention time of 857 s.

In the case of `CC(=O)COc1cc(O)c2c(=O)cc(-c3ccccc3)oc2c1`, the RP-LC retention time stood at 938 s.

Regarding `Cc1ccc(CNC(=O)CC2CCN(C(=O)c3[nH]c(C)cc3C)CC2)cc1`, the RP-LC retention time was found to be 797 s.

Turning to `Cc1cc(C)cc(NC(=O)NC2CCN(c3ccc(F)c(C)c3)C2=O)c1` (centres undefined), the RP-LC retention time was determined as 874 s.

`CCCNC(=O)c1cc2sc(C)c(CN3CCCCC3)c2[nH]1` displayed an RP-LC retention time of 629 s.

As to `CCCCCNC(=O)c1ccc(Oc2nccnc2N2CCC(C)CC2)cc1`, the RP-LC retention time came out at 1220 s.

In turn, `O=c1c2cc(-c3ccc(Br)cc3)nn2cnn1Cc1nc(-c2ccc3c(c2)OCO3)no1` returned an RP-LC retention time of 1160 s.

Turning to `Cn1c(=O)n(C)c2cc(N3CCCCC3)c(NC(=O)COc3ccc(Cl)cc3)cc21`, the RP-LC retention time is 1040 s.

Turning to `O=c1ccc(-c2nc(-c3ccc(Br)cc3)no2)cn1Cc1cc(=O)n2ccccc2n1`, the RP-LC retention time stood at 918 s.

Take `CCCn1c(=O)sc2cc(S(=O)(=O)N3CCC(C(=O)NCc4cccnc4)CC3)ccc21`: the RP-LC retention time was 643 s.

In turn, `COc1ccc(C(=O)NCc2nnc(SCC(=O)N3CCCc4ccccc43)o2)cc1` yielded an RP-LC retention time of 677 s.

Turning to `Cc1nc(C)c(C(=O)NCC23CCC=C2N(CC2CC2)C(=O)CC3)s1` (centres undefined), the RP-LC retention time came out at 757 s.

Turning to `Cc1cc(C)c(S(=O)(=O)NCC2CN(C)CC23CCCCC3)c(C)c1` (centres undefined), the RP-LC retention time worked out at 590 s.

The compound `O=C(N1CCC(NS(=O)(=O)Cc2ccccc2F)CC1)N1C[C@H]2C[C@H](C1)[C@H]1CCCC(=O)N1C2` showed an RP-LC retention time of 689 s.

For `Cc1cccc(NC(=O)C2CCN(S(=O)(=O)c3c(C)[nH]c(C)c3C(=O)N3CCCCC3)CC2)n1`, the RP-LC retention time turned out to be 642 s.

These data come from the METLIN SMRT retention time set (Domingo-Almenara et al. 2019).
